Measurements published in patent US9550796B2, “Pyrrolopyrrolone derivatives and their use as BET inhibitors” (NOVARTIS AG, priority 2013, dated 2017).

Molecular target: CREBBP (Homo sapiens (Human), UniProt Q92793)
Experiment: AlphaScreen in-vitro binding assay for CREBBP
Details: 324 nM His-CREBBP (1081-1197), acetyl-histone H4 (AcK 5, 8, 12) peptide
In short: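 IC50 values were derived by non-linear regression of percent inhibition across 8 compound concentrations. Protein was His-tagged CREBBP bromodomain (1081-1197), peptide acetyl-histone H4 (AcK 5, 8, 12), in HEPES pH 7.5 buffer. Read-out was AlphaScreen with Ni-chelate acceptor and streptavidin donor beads, 35 min at 30° C then 60 min at RT.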

Chain of CREBBP (Q92793 1081-1197): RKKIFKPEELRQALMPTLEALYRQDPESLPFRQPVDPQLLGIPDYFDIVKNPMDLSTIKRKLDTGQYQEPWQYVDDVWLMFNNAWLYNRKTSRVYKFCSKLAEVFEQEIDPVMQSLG

IC50 | Compound
10100 nM | Cc1cn(C)c2c1C(=O)N(c1cc(C)c3nnc(C)n3c1)C2c1ccc(Cl)cc1 (stereo not drawn) [Example 33, 6-(4-chlorophenyl)-5-(3,8-dimethyl-[1,2,4]triazolo[4,3-a]pyridin-6-yl)-1,3-di methyl-5,6-dihydropyrrolo[3,4-b]pyrrol-4(1H)-one]
1900 nM | Cc1cn(C)c2c1C(=O)N(c1cc(C)c(=O)n(C)c1)C2c1ccc(Cl)cc1 (stereo not drawn) [Example 34, 6-(4-chlorophenyl)-5-(1,5-dimethyl-6-oxo-1,6-dihydropyridin-3-yl)-1,3-dimethyl-5,6-dihydropyrrolo[3,4-b]pyrrol-4(1H)-one]
205 nM | COc1ncc(-c2cc3c(n2C)C(c2ccc(Cl)cc2)N(c2cc(Cl)c(=O)n(C)c2)C3=O)c(OC)n1 (stereo not drawn) [Example 38, 5-(5-chloro-1-methyl-6-oxo-1,6-dihydropyridin-3-yl)-6-(4-chlorophenyl)-2-(2,4-dimethoxypyrimidin-5-yl)-1-methyl-5,6-dihydropyrrolo[3,4-b]pyrrol-4(1H)-one]
310 nM | Cn1c(-c2ccc(=O)n(C)c2)cc2c1C(c1ccc(Cl)cc1)N(c1cc(Cl)c(=O)n(C)c1)C2=O (stereo not drawn) [Example 42, 5-(5-chloro-1-methyl-6-oxo-1,6-dihydropyridin-3-yl)-6-(4-chlorophenyl)-1-methyl-2-(1-methyl-6-oxo-1,6-dihydropyridin-3-yl)-5,6-dihydropyrrolo[3,4-b]pyrrol-4(1H)-one]
370 nM | Cc1cc(N2C(=O)c3cc(-c4ccn(C)c(=O)c4)n(C)c3C2c2ccc(Cl)cc2)cn(C)c1=O (stereo not drawn) [Example 45, 6-(4-chlorophenyl)-5-(1,5-dimethyl-6-oxo-1,6-dihydropyridin-3-yl)-1-methyl-2-(1-methyl-2-oxo-1,2-dihydropyridin-4-yl)-5,6-dihydropyrrolo[3,4-b]pyrrol-4(1H)-one]
91 nM | COc1ncc(-c2cc3c(n2C)[C@@H](c2ccc(Cl)cc2)N(c2cc(C)c(=O)n(C)c2)C3=O)c(OC)n1 [Example 54, (R)-6-(4-chlorophenyl)-2-(2,4-dimethoxypyrimidin-5-yl)-5-(1,5-dimethyl-6-oxo-1,6-dihydropyridin-3-yl)-1-methyl-5,6-dihydropyrrolo[3,4-b]pyrrol-4(1H)-one]
130 nM | COc1ncc(-c2cc3c(n2C)[C@@H](c2ccc(Cl)cc2)N(c2cc(C)c(=O)n(C)c2)C3=O)cn1 [Example 56, (R)-6-(4-chlorophenyl)-5-(1,5-dimethyl-6-oxo-1,6-dihydropyridin-3-yl)-2-(2-methoxypyrimidin-5-yl)-1-methyl-5,6-dihydropyrrolo[3,4-b]pyrrol-4(1H)-one]
790 nM | Cc1cc2c(n1C)[C@@H](c1ccc(Cl)cc1)N(c1cc(Cl)c(=O)n(C)c1)C2=O [Example 75, (R)-5-(5-chloro-1-methyl-6-oxo-1,6-dihydropyridin-3-yl)-6-(4-chlorophenyl)-1,2-dimethyl-5,6-dihydropyrrolo[3,4-b]pyrrol-4(1H)-one]
1300 nM | Cn1ccc2c1[C@@H](c1ccc(Cl)cc1)N(c1cc(Cl)c(=O)n(C)c1)C2=O [Example 77, (R)-5-(5-chloro-1-methyl-6-oxo-1,6-dihydropyridin-3-yl)-6-(4-chlorophenyl)-1-methyl-5,6-dihydropyrrolo[3,4-b]pyrrol-4(1H)-one]
